Where two headings read alike, the source gives them in different places.
Legend:
[1] = target: T1, hOX1R (Homo sapiens, UniProt O43613); test: In vitro test of OX1R: calcium signal change in cells detected with FLIPR; type: cell-based; conditions: HEK293-OX1 stable cell strain, Fluo-4 AM calcium signal, Orexin A at EC70
T1 construct: expressed in transfected cells
T1 sequence (O43613 1-425): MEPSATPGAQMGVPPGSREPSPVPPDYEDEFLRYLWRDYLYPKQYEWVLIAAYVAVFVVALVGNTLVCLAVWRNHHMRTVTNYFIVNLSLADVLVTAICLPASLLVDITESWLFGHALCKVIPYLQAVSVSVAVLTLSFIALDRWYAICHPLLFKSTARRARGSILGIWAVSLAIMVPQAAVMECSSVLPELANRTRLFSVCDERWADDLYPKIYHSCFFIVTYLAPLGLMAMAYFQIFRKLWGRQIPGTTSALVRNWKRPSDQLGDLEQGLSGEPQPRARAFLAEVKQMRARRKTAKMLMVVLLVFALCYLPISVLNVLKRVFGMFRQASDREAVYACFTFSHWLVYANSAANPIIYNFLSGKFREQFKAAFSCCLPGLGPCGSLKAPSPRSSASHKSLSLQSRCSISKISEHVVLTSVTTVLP
Method: (§1) The inhibitive effect of a compound on OX1 and OX2 GPCR receptor was evaluated by detecting calcium signal change in cells with FLIPR, and IC50 value of compound was used as an indication.
(§2) Experimental Materials: • Cell line: HEK293-OX1 and OX2 stable cell strain • HEK293-OX1 cell culture media (DMEM, Invitrogen#11960-044, 10% serum Gibco#10099141, L-Glutamine 1×, Gibco#25030, sodium pyruvate 1×, Gibco #11360, Geneticin 300 μg/ml, Gibco #10131). • HEK293-OX2 cell culture media (DMEM, Invitrogen#11960-044, 10% serum Gibco#10099141, L-Glutamine 1×, Gibco#25030, sodium pyruvate 1×, Gibco #11360, Geneticin 300 μg/ml, Gibco #10131, Blasticin 2 μg/ml, Invitrogen # R21001). • Pancreatic enzyme (Invitrogen, #25200-072) • DPBS (Hyclone, #SH30028.01B) • Fluo-4 AM, Invitrogen# F14202 • F-127, Invitrogen # P3000MP • Probenecid, Sigma # P8761 • 384-well cell plate, Greiner #781946 • 384-well compound plate, Greiner #781280 • CO2 incubator, Thermo#371 • Centrifuge, Eppendorf #5810R • Vi-cell cytometry, Beckman Coulter • POD 810 Plate Assembler Automatic microplate pretreatment system • Labcyte FLIPR, Molecular Device.
(§3) a) cell inoculation (HEK293-OX1 and HEK293-OX2 cells) • 1) The medium trypsin, and DPBS were preheated at 37° C. under water bath. Culture medium of cells was sucked and cells were washed with 10 mL DPBS. • 2) The preheated trypsin was added into the culture bottle which was rotated so that trypsin uniformly covered the bottle. It was placed in an incubator (37° C., 5% CO2) to digest for 1-2 minutes; • 3) Each T150 was suspended with 10-15 mL of culture medium, and centrifuged at 800 rpm for 5 minutes. Cells were resuspended with 10 mL medium, and 1 mL of the cell re-suspension was sucked out and counted with Vi-cell cytometry. • 4) The OX1 cells were diluted with culture medium to 5×10^5 cells/mL, and OX2 cells were diluted to 4×10^5 cells/mL. The diluted cells were added into 384 plate (Greiner. 781946) with multichannel pipettes (50 μL/hole, OX1 cells: 25000 cells/hole; and OX2 cells: 20000 cells/hole). The cell plate was placed in an incubator (37° C., 5% CO2) overnight.
(§4) b) loading of the compound: • 1) DMSO was used to dilute the compound into 20 mM by using 3-fold dilution. 8 gradients in duplicate wells were used. Echo liquid handler was used to add the compound into a compound plate. Then 20 μL buffer was added to ensure that the final DMSO concentration was 0.1%.
(§5) c) FLIPR Experiment: • 1) The cell culture medium in 384-well plate was washed away with a vacuum pump. 30 μL fluorescent dye Fluo4AM was added. […] 8 gradients in duplicate wells were used. Then the DMSO plate was prepared and the DMSO concentration was 0.5%. The cell plate, Orexin A plate, and DMSO plate were placed into FLIPR respectively, and the fluorescence values were read. • 3) EC70 value was calculated based on EC50 value of Orexin A. 5×EC70 solution was prepared and added into a 384-well compound plate with multichannel pipettes. The plate was placed on ice for preservation. • 4) In the FLIPR, the compound plate, 5×EC70 plate, cell plate and FLIPR tips were placed respectively. The program was run and the fluorescence values were read.
(§6) d) Data Analysis: Prism5.0 was used to analysis the data, and the IC50 value of the compound was calculated.

[2] = target: T2, hOX2R (Homo sapiens, UniProt O43614); test: In vitro test of OX2R: calcium signal change in cells detected with FLIPR; type: cell-based; conditions: HEK293-OX2 stable cell strain, Fluo-4 AM calcium signal, Orexin A at EC70
T2 construct: expressed in transfected cells
T2 sequence (O43614 1-444): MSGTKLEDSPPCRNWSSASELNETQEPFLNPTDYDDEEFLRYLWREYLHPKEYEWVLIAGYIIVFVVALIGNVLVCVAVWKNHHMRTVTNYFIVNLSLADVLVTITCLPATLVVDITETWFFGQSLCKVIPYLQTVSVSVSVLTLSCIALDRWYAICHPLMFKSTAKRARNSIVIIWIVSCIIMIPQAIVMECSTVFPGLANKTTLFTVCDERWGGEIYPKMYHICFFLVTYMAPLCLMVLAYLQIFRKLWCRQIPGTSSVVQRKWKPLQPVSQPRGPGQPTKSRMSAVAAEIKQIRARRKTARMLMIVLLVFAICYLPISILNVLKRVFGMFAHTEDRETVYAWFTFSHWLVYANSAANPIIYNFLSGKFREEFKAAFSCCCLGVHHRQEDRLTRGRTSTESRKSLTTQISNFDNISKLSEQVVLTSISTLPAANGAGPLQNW
Method: as §1, §2, §3, §4, §5, §6

[3] = read-out: IC50 detected in FLIPR, hOX1R
[4] = read-out: IC50 detected in FLIPR, hOX2R

| Compound | IC50 [1, 3] [nM] | IC50 [2, 4] [nM] | IC50 ([1]; IC50 detected in FLIPR, hOX1R) [nM] | IC50 ([2]; IC50 detected in FLIPR, hOX2R) [nM] |
| --- | --- | --- | --- | --- |
| Cc1ccc(-n2nccn2)c(C(=O)N2C3CCC(COc4ccc(F)cn4)C2CC3)c1 (single isomer, unassigned) [Example 3] | 2070 | 1420 |  |  |
| Cc1ccc(-c2ncccn2)c(C(=O)N2C3CC[C@H]2CC[C@@H]3COc2ccncc2)c1 [Example 32] | 7 | 6 |  |  |
| O=C(c1cc(C(F)(F)F)ccc1-c1ncccn1)N1C2CC[C@H]1CC[C@@H]2COc1ccc(F)cn1 [Example 35] |  |  | 2070 | 1420 |
| Cc1ccc(-c2ccccc2)c(C(=O)N2C3CC[C@H]2CC[C@@H]3COc2ccc(F)cn2)c1 [Example 12] |  |  | 219 | 206 |
| Cc1ccc(-c2ncccn2)c(C(=O)N2C3CCC(C(=O)Nc4ccccc4O)C2CC3)c1 (stereo not shown) [Example 27] |  |  | 3000 | 3000 |
| Cc1ccc(-c2ncccn2)c(C(=O)N2C3CCC(COc4ncc(Cl)cc4F)C2CC3)c1 (stereo not shown) [Example 25] | 113 | 124 |  |  |
| Cc1cccc(C(=O)N2C3CC[C@H]2CC[C@@H]3COc2ccc(F)cn2)c1 [Example 21] | 567 | 741 |  |  |
| Cc1ccc(-c2ncccn2)c(C(=O)N2C3CCC2[C@@H](COc2ccccn2)CC3)c1 (stereo partly shown) [Example 23] |  |  | 45 | 97 |
| O=C(c1cc(F)ccc1-n1nccn1)N1C2CC[C@H]1CC[C@@H]2COc1ccc(F)cn1 [Example 14] |  |  | 16 | 20 |
| Cc1ccc(-c2ncccn2)c(C(=O)N2C3CCC(COc4ccc(F)cn4)C2CC3)c1 (single isomer, unassigned) [Example 8] | 4260 | 4610 |  |  |
| O=C(c1cc(Cl)ccc1-n1ccnn1)N1C2CC[C@H]1CC[C@@H]2COc1ccc(F)cn1 [Example 19] | 41 | 372 |  |  |
| Cc1ccc(-n2nccn2)c(C(=O)N2C3CCC(COc4ccc(F)cn4)C2CC3)c1 (single isomer, unassigned) [Example 4] | 217 | 195 |  |  |
| Cc1ccc(-n2cccn2)c(C(=O)N2C3CC[C@H]2CC[C@@H]3COc2ccc(F)cn2)c1 [Example 20] |  |  | 7 | 26 |
| Cc1ccc(-c2ccccn2)c(C(=O)N2C3CC[C@H]2CC[C@@H]3COc2ccc(F)cn2)c1 [Example 11] | 321 | 363 |  |  |
| Cc1ccc(-c2ncccn2)c(C(=O)N2C3CC[C@H]2CC[C@@H]3COc2ccc(F)cc2)c1 [Example 29] | 68 | 121 |  |  |
| Cc1ccc(-c2ncccn2)c(C(=O)N2C[C@H](COc3ccc(F)cn3)CC[C@H]2C)c1 [MK6096, reference compound] | 36 | 29 |  |  |
| Cc1ccc(-c2cccnc2)c(C(=O)N2C3CCC2[C@@H](COc2ccc(F)cn2)CC3)c1 (stereo partly shown) [Example 33] |  |  | 10 | 24 |
| Cc1ccc(-c2cncnc2)c(C(=O)N2C3CCC2[C@@H](COc2ccc(F)cn2)CC3)c1 (stereo partly shown) [Example 34] |  |  | 2300 | 2510 |

| Compound | IC50 [1, 3] [nM] | IC50 [2, 4] [nM] | IC50 ([1]; IC50 detected in FLIPR, hOX1R) [nM] | IC50 ([2]; IC50 detected in FLIPR, hOX2R) [nM] |
| --- | --- | --- | --- | --- |
| Cc1ccc(-c2ncccn2)c(C(=O)N2C3CC[C@H]2CC[C@@H]3COc2ccc(F)cc2F)c1 [Example 30] |  |  | 489 | 262 |
| O=C(c1cc(Cl)ccc1-c1ncccn1)N1C2CC[C@H]1CC[C@@H]2COc1ccc(F)cn1 [Example 18] |  |  | 127 | 904 |
| Cc1ccc(-c2ccncc2)c(C(=O)N2C3CC[C@H]2CC[C@@H]3COc2ccc(F)cn2)c1 [Example 13] |  |  | 47 | 663 |
| Cc1ccc(-c2ncccn2)c(C(=O)N2C3CCC(c4nc5ccccc5o4)C2CC3)c1 (stereo not shown) [Example 28] |  |  | 34 | 23 |
| Cc1ccc(C)c(C(=O)N2C3CC[C@H]2CC[C@@H]3OCc2ccc(F)cn2)c1 [Example 36] | 217 | 195 |  |  |
| Cc1ccc(-c2ncccn2)c(C(=O)N2C3CC[C@H]2CC[C@@H]3COc2cccnc2)c1 [Example 31] |  |  | 305 | 221 |
| O=C(c1ccc(F)cc1-n1nccn1)N1C2CC[C@H]1CC[C@@H]2COc1ccc(F)cn1 [Example 15] |  |  | 37 | 55 |
| O=C(c1cc(Cl)ccc1-n1nccn1)N1C2CC[C@H]1CC[C@@H]2COc1ccc(F)cn1 [Example 16] |  |  | 56 | 440 |
| Cc1nc(C(=O)N2C3CC[C@H]2CC[C@@H]3COc2ccc(F)cn2)c(-c2ccccc2)s1 [Example 10] |  |  | 29 | 73 |
| Cc1cccc(S(=O)(=O)N2C3CC[C@H]2CC[C@@H]3COc2ccc(F)cn2)c1 [Example 22] |  |  | 2420 | 1370 |
| Cc1ccc(-c2ncccn2)c(C(=O)N2C3CC[C@H](COc4ccc(F)cn4)[C@@H]2CC3)c1 [Example 6] | 2550 | 4190 |  |  |
| Cc1ccc(OCC2CCC3CCC2N3C(=O)c2cc(C)ccc2-c2ncccn2)nc1 (stereo not shown) [Example 24] |  |  | 56 | 87 |
| O=C(c1cc(F)ccc1-c1ncccn1)N1C2CC[C@H]1CC[C@@H]2COc1ccc(F)cn1 [Example 17] | 43 | 47 |  |  |
| Cc1ccc(-c2nccs2)c(C(=O)N2C3CC[C@H]2CC[C@@H]3OCc2ccc(F)cn2)c1 [Example 37] |  |  | 20 | 36 |
| O=C(c1c(F)cccc1-n1nccn1)N1C2CC[C@H]1CC[C@@H]2COc1ccc(F)cn1 [Example 9] |  |  | 24 | 15 |
| Cc1ccc(-c2ncccn2)c(C(=O)N2C3CCC(COc4ccc(F)cn4)C2CC3)c1 (single isomer, unassigned) [Example 7] | 1270 | 291 |  |  |
| Cc1ccc(-c2ncccn2)c(C(=O)N2C3CCC2C(F)(COc2ccc(F)cn2)CC3)c1 (stereo not shown) [Example 26] | 48 | 37 |  |  |

From patent US10100047B2, “Piperidine derivatives as orexin receptor antagonist” (SHANGHAI HAIYAN PHARMACEUTICAL TECHNOLOGY CO., LTD., priority 2014, dated 2018)
